# Laboratory results from US20090253704A1, “PYRROLOTRIAZINONE DERIVATIVES FOR USE AS STEAROYL CoA DESATURASE INHIBITORS” (priority 2008, published 2009).
# Target: T1, Stearoyl-CoA desaturase (SCD) (Rattus norvegicus, UniProt P07308)
# T1 construct: from tissue; host or cells: liver microsomes of male Sprague Dawley rats, SCD induced by carbohydrate-rich diet
# T1 sequence (P07308 1-358): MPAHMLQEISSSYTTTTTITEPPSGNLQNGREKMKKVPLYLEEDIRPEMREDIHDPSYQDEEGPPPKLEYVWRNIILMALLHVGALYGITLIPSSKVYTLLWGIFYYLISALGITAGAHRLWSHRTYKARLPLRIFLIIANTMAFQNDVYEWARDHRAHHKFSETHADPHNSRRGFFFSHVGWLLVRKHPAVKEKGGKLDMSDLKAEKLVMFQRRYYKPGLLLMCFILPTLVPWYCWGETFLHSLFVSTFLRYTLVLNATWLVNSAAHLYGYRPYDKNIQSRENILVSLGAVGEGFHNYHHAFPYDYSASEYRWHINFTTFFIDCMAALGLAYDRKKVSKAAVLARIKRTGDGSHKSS
# Experiment: SCD assay in rat liver microsomes ([3H]stearoyl CoA desaturation, adapted from Talamo and Bloch)
# Type: biochemical
# Conditions: rat liver microsomes 0.2 mg/ml final, 30 min preincubation, 45 min reaction at room temperature
# Text: The identification of compounds of the invention as SCD inhibitors was readily accomplished using the SCD enzyme and microsomal assay procedure described in Talamo and Bloch (1969) Analytical Biochemistry 29:300-304.
# The rat liver microsomes were collected according to the procedure described in Ozols (1990) Methods Enzm, 182:225.
# Male Spraque Dawley Rats were placed on regimented fasting protocol for one week to stimulate SCD enzymatic activity. 48-hour periods were alternated between feeding and fasting to induce and down-regulate SCD activity with SCD activity being induced via carbohydrate rich diet prior to liver perfusion and collection.
# The rats were anesthetized with Isoflurane inhalation anesthetic, the liver perfused with cold phosphate buffered saline (PBS), weighed, and chilled in cold homogenization buffer (250 mM sucrose, 10 mM Tris, 1 mM EDTA, pH 7.6).
# The livers were finely minced and placed in homogenization tube. Homogenization buffer (40 mL) was added to the homogenization tube and the liver homogenized and centrifuged in a pre-chilled […] for 10 min at 4° C.
# Following centrifugation, the supernatant was collected and the pellet removed and discarded. The supernatant was centrifuge at 10,000 G for 35 minutes. Following centrifugation, the supernatant was collect and the pellet discarded. The supernatant was then centrifuged in a pre-chilled 45-Ti rotor at 130,000 G (41,000 RPM) for 90 minutes at 4° C.
# The supernatant was then aspirated off and the collected microsomal pellet washed in 25 mL of Glycerol PBS (1×PBS 7.4, 20% Glycerol) and resuspended in 4-5 volumes of Glycerol PBS.
# The protein concentration of the microsomal preparation was determined by BCA assay (Pierce) and the microsomes were aliquoted and stored at −80° C.
# Biobeads were ground to a smaller size in a mortar and pestle and resuspended in 3.6% TCA. The beads were then filtered through […] mesh.
# SCD was determined in the desaturase assay buffer. This assay buffer contained 0.1 M Tris buffer, pH 7.2, 2 mM NADH, 4.8 mM ATP, 0.5 mM CoA, 4.8 mM MgCl2, and 0.1% BSA.
# The Procedure for the SCD Assay (Adapted from Talamo and Bloch (1969) Analytical Biochemistry 29:300-304)
# 1 μl of each compound of Formula I was added to an assay plate by a low volume (0.5-10 μL) multichannel pipette. A DMSO control was also prepared. The microsomes were quickly thawed and added to assay buffer so that a concentration of 0.4 mg/ml was achieved (0.2 mg/ml assay final). 50 μl of the microsome suspension in assay buffer was then added into each well in the compound assay plate, the plate was covered, and the microsomes preincubated with the compounds for 30 minutes on the orbital shaker, 50-75 rpm, at room temperature.
# After preincubation, the reaction was initiated by the addition of 50 μl of substrate solution (20 μM Stearoyl CoA, [3H]Stearoyl CoA, 74 nCi) to the preincubated microsomes/compound suspensions in MilliQ (Millipore) H2O. The reaction mixtures were then incubated for 45 minutes on the orbital shaker at 50-75 rpm at room temperature.
# The reaction was terminated by the addition of 10 μl of 21% trichloroacetic acid (TCA) to the reaction mixture followed incubation on the orbital shaker for 30 minutes at 50-75 rpm at room temperature followed by centrifugation for 5 minutes at 3700 rpm.
# 50 μl of a 6% Bio-Bead suspension in H2O was added to the reaction mixture and the assay plate was sealed. The Bio-Bead mixture was incubated on the orbital shaker for 1 hour, 100-150 rpm at room temperature, and then the mixture was centrifuged at 2000 g for 5 minutes to pellet the Bio-Beads.
# 25 μl of the supernatant was harvested from each well and transferred to a detection plate. 100 μl of OptiPhase SuperMix scintillation cocktail (containing sufficient NaOH to neutralize the TCA) was added and the solutions mixed by vigorous shaking (300-400 rpm) for 5 minutes at room temperature.
row,Compound,IC50
1,"O=C(CO)Nc1cc2c(=O)n(CCOc3ccccc3Cl)cnn2c1 [N-(3-(2-(2-chlorophenoxy)ethyl)-4-oxo-3,4-dihydropyrrolo[1,2-f][1,2,4]triazin-6-yl)-2-hydroxyacetamide]",5600 nM
2,"CCCCCCC(=O)Nc1cc2c(=O)n(Cc3ccc(Cl)c(Cl)c3)cnn2c1 [N-(3-(3,4-dichlorobenzyl)-4-oxo-3,4-dihydropyrrolo[1,2-f][1,2,4]triazin-6-yl)heptanamide]",27000 nM
3,"O=C(CO)Nc1cc2c(=O)n(CCc3ccc(Cl)cc3)cnn2c1 [N-(3-(4-chlorophenethyl)-4-oxo-3,4-dihydropyrrolo[1,2-f][1,2,4]triazin-6-yl)-2-hydroxyacetamide]",14000 nM
4,"O=C(Nc1cc2c(=O)n(Cc3ccc(Cl)c(Cl)c3)cnn2c1)OCc1ccccc1 [benzyl 3-(3,4-dichlorobenzyl)-4-oxo-3,4-dihydropyrrolo[1,2-f][1,2,4]triazin-6-ylcarbamate]",1600 nM

# Stronger by IC50, values ahead:
row,IC50,Compound
1,10 nM,"O=C(Nc1cc2c(=O)n(Cc3ccc(Cl)c(Cl)c3)cnn2c1)C(O)CO (stereo not drawn) [N-(3-(3,4-dichlorobenzyl)-4-oxo-3,4-dihydropyrrolo[1,2-f][1,2,4]triazin-6-yl)-2,3-dihydroxypropanamide]"
2,250 nM,"O=C(CO)Nc1cc2c(=O)n(Cc3ccc(Cl)c(Cl)c3)cnn2c1 [N-(3-(3,4-dichlorobenzyl)-4-oxo-3,4-dihydropyrrolo[1,2-f][1,2,4]triazin-6-yl)-2-hydroxyacetamide]"
3,240 nM,"O=C(CO)Nc1cc2c(=O)n(CCCOc3cc(Cl)ccc3Cl)cnn2c1 [N-(3-(3-(2,5-dichlorophenoxy)propyl)-4-oxo-3,4-dihydropyrrolo[1,2-f][1,2,4]triazin-6-yl)-2-hydroxyacetamide]"
4,320 nM,"O=C(CO)Nc1cc2c(=O)n(Cc3ccc(Cl)c(C(F)(F)F)c3)cnn2c1 [N-(3-(4-chloro-3-(trifluoromethyl)benzyl)-4-oxo-3,4-dihydropyrrolo[1,2-f][1,2,4]triazin-6-yl)-2-hydroxyacetamide]"
5,830 nM,"O=C(Nc1cc2c(=O)n(CCc3ccc(Cl)cc3)cnn2c1)C(O)CO (stereo not drawn) [N-(3-(4-chlorophenethyl)-4-oxo-3,4-dihydropyrrolo[1,2-f][1,2,4]triazin-6-yl)-2,3-dihydroxypropanamide]"
